This is an account of results in patent US20070142304A1, “Diphenylazetidinone derivatives possessing chloesterol absorption inhibitory activity” (priority 2003, published 2007).

This assay relates to 14C-cholesterol absorption. Kind of assay: In Vivo Testing of Cholesterol Absorption Inhibitors (A). Conditions: 5 μmol/kg by gavage, C57BL/6 female mice, procedure A. The protocol: In Vivo Testing of Cholesterol Absorption Inhibitors (A)
C57BL/6 female mice were maintained on regular chow diet and housed in individual cages to collect faeces. Mice were fasted for 3 hours and then gavaged with vehicle or compound. Half an hour later the mice were gavaged with radiolabelled cholesterol. Six hours after the ^14C-cholesterol gavage blood samples were taken via the tail and plasma prepared to determine how much cholesterol were absorbed. 24 hours after the gavage of ^14C-cholesterol the mice were bled and plasma were prepared for analysis. Faeces were collected for 24 hours to assess absorption efficiency.

As for `CC(C)CC(NC(=O)COc1ccc(C2C(CCC(O)c3ccc(F)cc3)C(=O)N2c2ccc(F)cc2)cc1)C(=O)NC(Cc1ccccc1)C(=O)O` [Example 3, 1-(4-Fluorophenyl)-3-(R)-[3-(4-fluorophenyl)-3-hydroxypropyl]-4-(S)-{4-[N-((R)-1-{N-[1-(R)-(carboxy)-2-(phenyl)ethyl]carbamoyl}-3-methylbutyl)carbamoylmethoxy]phenyl}azetidin-2-one], the “inhibition of 14C-cholesterol absorption” value came out at 75%.

Turning to `O=C(COc1ccc(C2C(CCC(O)c3ccc(F)cc3)C(=O)N2c2ccc(F)cc2)cc1)NC(Cc1ccccc1)C(=O)NC(CO)C(=O)O` [Example 4, 1-(4-Fluorophenyl)-3-(R)-[3-(4-fluorophenyl)-3-hydroxypropyl]-4-(S)-[4-(N-{1-(R)-[N-(1-(S)-carboxy-2-hydroxyethyl)carbamoyl]-2-phenylethyl}carbamoylmethoxy)phenyl]azetidin-2-one], the “inhibition of 14C-cholesterol absorption” value worked out at 58%.
